Reference: patent US20190195897A1, “GLYCOSYLATED METABOLITES” (UNIVERSITEIT LEIDEN, priority 2015, published 2019)

What was measured:
[1] = target: T1, recombinant GBA1 (rGBA1, Cerezyme) (Homo sapiens, UniProt P04062, R534H); experiment: Degradation of GlcChol by rGBA1; assay type: biochemical
T1 construct: purchased Genzyme (Genzyme Nederland, Naarden, The Netherlands)
T1 sequence (P04062 40-536 R534H): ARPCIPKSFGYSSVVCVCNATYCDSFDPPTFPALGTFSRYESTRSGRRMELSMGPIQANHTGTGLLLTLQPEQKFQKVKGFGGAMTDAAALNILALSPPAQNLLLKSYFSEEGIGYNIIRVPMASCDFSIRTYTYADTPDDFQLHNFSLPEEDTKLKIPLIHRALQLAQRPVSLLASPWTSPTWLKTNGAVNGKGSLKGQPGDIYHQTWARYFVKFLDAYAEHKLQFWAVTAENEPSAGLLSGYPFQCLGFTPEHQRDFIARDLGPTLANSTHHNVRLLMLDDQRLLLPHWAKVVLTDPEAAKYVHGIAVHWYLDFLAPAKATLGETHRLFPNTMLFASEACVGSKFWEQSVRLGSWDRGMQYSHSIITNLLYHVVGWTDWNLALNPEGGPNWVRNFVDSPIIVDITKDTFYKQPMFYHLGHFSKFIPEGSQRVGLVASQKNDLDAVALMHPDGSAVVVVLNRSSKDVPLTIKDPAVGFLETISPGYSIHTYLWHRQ
Protocol: FIG. 1D: Linearity of GlcChol quantification and its complete digestion with rGBAl. (5 IU) for 60 min at 37 C.
The physiological significance of glucosylation of cholesterol is hypothetically great since it renders the molecule far more water soluble. To establish whether GlcChol physiologically occurs in mammals, firstly a LC-MS/MS procedure was developed for its quantitative detection. For this purpose, a ^13C-isotope labeled cholesterolglucoside was synthesized to be used as internal standard in sensitive quantitative detection of GlcChol by LC-MS/MS. The use of the isotope labeled compound as internal standard avoids the need for corrections for extraction efficiency, chromatographic behavior and ionization efficiency, during quantification GlcChol. […] The limit of detection (LOD) was 0.5 pmol/mL plasma, with a signal to noise ratio of 3 and a limit of quantitation (LOQ) of 0.9 pmol/mL plasma with a signal to noise ratio of 10.
Both GBA and GBA2, but not GBA3, are able to degrade by hydrolysis as well as synthesize GlcChol at conditions optimal for degradation of 4MU-8-glucoside (FIG. 1D; supplemental Table 1). […] This ability of the several GBA's to hydrolyze as well as synthesize GlcChol was studied in vitro using 25-NBD-cholesterol as acceptor and detection of 25-NBD-glucoside formation by TLC and fluorescence scanning. […]

GBA2 = target: T2, GBA2 (Mus musculus, UniProt Q69ZF3); experiment: Degradation of GlcChol by GBA2; assay type: biochemical, murine; settings: GBA2, input 18 nmol 4MU-β-Glc hydrolysis per ml/h
T2 construct: Myc-His (C); expressed in transfected cells; host or cells: COS-7 cells, used as homogenate/lysate
T2 sequence (Q69ZF3 1-918): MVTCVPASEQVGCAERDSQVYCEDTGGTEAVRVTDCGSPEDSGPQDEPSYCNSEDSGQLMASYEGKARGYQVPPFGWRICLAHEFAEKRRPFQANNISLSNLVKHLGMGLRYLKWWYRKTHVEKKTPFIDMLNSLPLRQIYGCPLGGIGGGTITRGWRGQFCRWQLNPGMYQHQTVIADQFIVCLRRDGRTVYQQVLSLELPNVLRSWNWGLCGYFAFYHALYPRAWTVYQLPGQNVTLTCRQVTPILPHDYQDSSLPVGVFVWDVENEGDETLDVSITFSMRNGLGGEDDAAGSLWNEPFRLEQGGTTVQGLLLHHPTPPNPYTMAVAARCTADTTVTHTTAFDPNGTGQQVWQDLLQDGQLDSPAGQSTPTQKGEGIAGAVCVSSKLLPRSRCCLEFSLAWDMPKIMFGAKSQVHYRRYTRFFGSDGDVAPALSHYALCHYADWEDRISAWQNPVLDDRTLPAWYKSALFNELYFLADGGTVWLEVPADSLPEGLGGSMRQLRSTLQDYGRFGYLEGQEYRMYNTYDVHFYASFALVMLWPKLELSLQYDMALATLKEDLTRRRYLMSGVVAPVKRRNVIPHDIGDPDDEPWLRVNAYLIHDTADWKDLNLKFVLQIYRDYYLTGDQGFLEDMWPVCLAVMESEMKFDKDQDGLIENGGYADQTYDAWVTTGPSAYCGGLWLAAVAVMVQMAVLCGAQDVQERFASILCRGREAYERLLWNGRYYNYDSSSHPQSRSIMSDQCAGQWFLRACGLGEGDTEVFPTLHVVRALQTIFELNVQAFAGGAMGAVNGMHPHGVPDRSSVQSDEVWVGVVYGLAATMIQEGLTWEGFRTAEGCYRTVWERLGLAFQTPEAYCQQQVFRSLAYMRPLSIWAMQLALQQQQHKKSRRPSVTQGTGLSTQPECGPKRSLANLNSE
Description: Both GBA and GBA2, but not GBA3, are able to degrade by hydrolysis as well as synthesize GlcChol at conditions optimal for degradation of 4MU-8-glucoside (FIG. 1D; supplemental Table 1). […] This ability of the several GBA's to hydrolyze as well as synthesize GlcChol was studied in vitro using 25-NBD-cholesterol as acceptor and detection of 25-NBD-glucoside formation by TLC and fluorescence scanning. As source of enzyme rGBA1 was used and GBA2 and GBA3 were individually overexpressed in COST-cells. Overexpression of enzymes was checked by measuring enzymatic activity with appropriate assays and visualization of enzymes with the broad-specificity β-glucopyranosyl cyclophellitolaziridine-type ABP (38). rGBA1 and lysates of GBA2 and GBA3 overexpressing cells were incubated with natural glucosylceramide (C16:0-GloCer or C18:1-GlcCer) as donors and 25-NBD-cholesterol as acceptor. […]
Homogenates of COS-7 cells overexpressing GBA2 and/or GCS, were analyzed for enzymatic activity of GBA2 using artificial 4MU-Glc substrate as earlier described (38). […] The reaction was terminated by addition of 1.25 mL stop-buffer (0.3 M Glycine/NaOH, pH 10.6) and the released 4MU was measured with a LS55 Fluorescence Spectrometer (Perkin-Elmer, Waltham, Mass., USA).

substrate for recombinant GBA1 ([1]; even at sub-optimal conditions (absence of Triton-X-100 and sodium taurocholate)): excellent substrate
Percentage digestion GlcChol after 1 h (10 nmole) ([1]; rGBA1, input 15 nmol 4MU-β-Glc hydrolysis per ml/h): 95%
Percentage digestion GlcChol after 1 h (10 nmole) (GBA2): 83%
SMILES: CC(C)CCC[C@@H](C)[C@H]1CC[C@H]2[C@@H]3CC=C4C[C@@H](O[C@@H]5O[C@H](CO)[C@@H](O)[C@H](O)[C@H]5O)CC[C@]4(C)[C@H]3CC[C@]12C [GlcChol, 1-O-cholesteryl-β-D-glucopyranoside]
